What is called IC50 is the concentration at which inhibition is half-maximal.

This assay has as its system PANC08.13 cells. Kind of assay: Cellular phospho-ERK assay, PANC08.13 cells (homozygous KRAS-G12D). The assay is classed as cell-based. The note with it: Homo sapiens, PANC-08-13, KRAS-G12D, 2 hours, read-out: PANC-08.13 pERK IC50. Put shortly: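 10k–15k cells/well, o/n attach; cpd 2 h, 37 °C, 10-pt 1:3 from 30 μM final; lyse with protease/phosphatase inhibitors 30 min RT; multiplex SureFire p-ERK + total ERK; IC50 via 4PL on ratio.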

For the compound `C#Cc1c(F)ccc2cc(O)cc(-c3nccc4c5c(N6CCOC[C@@](C)(O)C6)nc(OC[C@@]67CCCN6C[C@H](F)C7)nc5n(C)c34)c12` [Ex-18, (S)-4-(8-(8-ethynyl-7-fluoro-3-hydroxynaphthalen-1-yl)-2-(((2R,7aS)-2-fluorotetrahydro-1H-pyrrolizin-7a(5H)-yl)methoxy)-9-methyl-9H-pyrido[4′,3′:4,5]pyrrolo[2,3-d]pyrimidin-4-yl)-6-methyl-1,4-oxazepan-6-ol], the IC50 was found to be 4.54 nM.

The values are drawn from US20260176289A1, “SMALL MOLECULE INHIBITORS OF KRAS PROTEINS” (Merck Sharp & Dohme LLC, priority 2022, published 2026).
